Results reported in ChEMBL document CHEMBL1142358, “3-amino-benzo[d]isoxazoles as novel multitargeted inhibitors of receptor tyrosine kinases” (J Med Chem, 2008).
Blank lines part the entries; values can stand above or below the molecule they belong to. Activity calls are given as the source filed them. The calls are words filed in the database; no cut-off is given here.

Key:
[1] = target: Mast/stem cell growth factor receptor Kit (Homo sapiens, UniProt P10721); assay: Inhibition of KIT by HTRF assay
[2] = target: T1, Receptor-type tyrosine-protein kinase FLT3 (Homo sapiens, UniProt P36888)
T1 sequence (P36888 whole entry): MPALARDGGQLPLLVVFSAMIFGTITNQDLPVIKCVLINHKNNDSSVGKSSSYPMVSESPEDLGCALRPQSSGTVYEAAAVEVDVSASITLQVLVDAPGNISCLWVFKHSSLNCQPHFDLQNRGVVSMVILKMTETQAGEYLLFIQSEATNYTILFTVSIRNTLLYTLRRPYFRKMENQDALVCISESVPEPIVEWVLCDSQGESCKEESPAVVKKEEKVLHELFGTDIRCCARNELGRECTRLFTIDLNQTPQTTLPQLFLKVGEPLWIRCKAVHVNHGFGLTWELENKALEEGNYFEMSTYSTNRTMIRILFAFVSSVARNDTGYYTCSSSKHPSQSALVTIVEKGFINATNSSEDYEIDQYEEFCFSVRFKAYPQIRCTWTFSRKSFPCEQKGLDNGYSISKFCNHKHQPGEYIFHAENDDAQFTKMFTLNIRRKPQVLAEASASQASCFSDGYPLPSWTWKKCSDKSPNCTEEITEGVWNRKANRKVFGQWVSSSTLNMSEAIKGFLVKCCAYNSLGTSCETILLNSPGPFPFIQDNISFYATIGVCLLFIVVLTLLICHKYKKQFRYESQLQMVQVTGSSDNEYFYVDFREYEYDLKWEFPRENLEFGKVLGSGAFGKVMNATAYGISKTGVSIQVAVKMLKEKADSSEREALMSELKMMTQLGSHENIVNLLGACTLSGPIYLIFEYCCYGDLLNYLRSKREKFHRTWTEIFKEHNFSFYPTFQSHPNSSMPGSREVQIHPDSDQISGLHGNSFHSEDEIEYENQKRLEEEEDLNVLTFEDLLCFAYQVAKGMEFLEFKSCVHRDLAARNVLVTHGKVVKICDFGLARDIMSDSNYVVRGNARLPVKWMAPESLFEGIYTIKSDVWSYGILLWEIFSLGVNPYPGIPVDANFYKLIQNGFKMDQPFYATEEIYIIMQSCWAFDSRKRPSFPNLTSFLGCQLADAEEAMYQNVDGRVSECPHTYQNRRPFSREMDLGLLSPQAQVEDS
Description: Inhibition of FLT3 by HTRF assay

[3] = target: T2, Vascular endothelial growth factor receptor 2 (Homo sapiens, UniProt P35968)
Description: Inhibition of KDR by HTRF assay

[4] = target: Receptor-type tyrosine-protein kinase FLT3 (Homo sapiens) (UniProt P36888)
Description: Inhibition of FLT3 by HTRF assay

[5] = Oral bioavailability in mouse at 10 mg/kg; format: ADME, organism-based; settings: in vivo
[6] = test system: Mus musculus; assay: Inhibition of estradiol-induced uterine edema in orally dosed BALB/c mouse edema model; format: functional; settings: po
[7] = Half life in mouse at 3 mg/kg, iv; format: ADME, organism-based; set-up: dose 3 mg/kg, route intravenous; settings: in vivo
[8] = test system: HT-1080; assay: Inhibition of tumor growth in human HT1080 cells xenografted in SCID/Beige mouse at 30 mg/kg/day, bid relative to control; settings: HT-1080, read-out: TGI
[9] = Clearance in mouse at 3 mg/kg, iv; format: ADME, organism-based; set-up: dose 3 mg/kg, route intravenous; settings: in vivo
[10] = Volume of distribution in mouse at 3 mg/kg, iv; format: ADME, organism-based; set-up: dose 3 mg/kg, route intravenous; settings: in vivo
[11] = AUC in mouse at 10 mg/kg, po; format: ADME, organism-based; set-up: dose 10 mg/kg, route oral; settings: plasma
[12] = target: Tyrosine-protein kinase Lyn (Homo sapiens, UniProt P07948); assay: Inhibition of LYN by HTRF assay
[13] = target: Tyrosine-protein kinase HCK (Homo sapiens, UniProt P08631); assay: Inhibition of HCK by HTRF assay
[14] = target: Proto-oncogene tyrosine-protein kinase Src (Homo sapiens, UniProt P12931); assay: Inhibition of SRC by HTRF assay
[15] = target: Angiopoietin-1 receptor (Homo sapiens, UniProt Q02763); assay: Inhibition of TIE2 by HTRF assay
[16] = target: Platelet-derived growth factor receptor beta (Homo sapiens, UniProt P09619); assay: Inhibition of PDGFRbeta by HTRF assay
[17] = target: Vascular endothelial growth factor receptor 1 (Homo sapiens, UniProt P17948); assay: Inhibition of FLT1 by HTRF assay
[18] = target: Macrophage colony-stimulating factor 1 receptor (Homo sapiens, UniProt P07333); assay: Inhibition of CSF1R by HTRF assay
[19] = target: Voltage-gated inwardly rectifying potassium channel KCNH2 (Homo sapiens, UniProt Q12809)
Description: Displacement of [3H]dofetilide from human ERG expressed in HEK293 cells

[20] = test system: Mus musculus; assay: Inhibition of estradiol-induced uterine edema in orally dosed BALB/c mouse edema model at 3 mg/kg, po; format: functional
[21] = Volume of distribution in mouse at 1 mg/kg, iv; format: ADME, organism-based; set-up: dose 1 mg/kg, route intravenous; settings: in vivo
[22] = Clearance in mouse at 1 mg/kg, iv; format: ADME, organism-based; set-up: dose 1 mg/kg, route intravenous; settings: in vivo
[23] = Half life in mouse at 1 mg/kg, iv; format: ADME, organism-based; set-up: dose 1 mg/kg, route intravenous; settings: in vivo
[24] = target: T2, Vascular endothelial growth factor receptor 2; assay: Inhibition of human KDR phosphorylation in mouse NIH3T3 cells by ELISA; format: cell-based

T2 sequence (P35968 whole entry): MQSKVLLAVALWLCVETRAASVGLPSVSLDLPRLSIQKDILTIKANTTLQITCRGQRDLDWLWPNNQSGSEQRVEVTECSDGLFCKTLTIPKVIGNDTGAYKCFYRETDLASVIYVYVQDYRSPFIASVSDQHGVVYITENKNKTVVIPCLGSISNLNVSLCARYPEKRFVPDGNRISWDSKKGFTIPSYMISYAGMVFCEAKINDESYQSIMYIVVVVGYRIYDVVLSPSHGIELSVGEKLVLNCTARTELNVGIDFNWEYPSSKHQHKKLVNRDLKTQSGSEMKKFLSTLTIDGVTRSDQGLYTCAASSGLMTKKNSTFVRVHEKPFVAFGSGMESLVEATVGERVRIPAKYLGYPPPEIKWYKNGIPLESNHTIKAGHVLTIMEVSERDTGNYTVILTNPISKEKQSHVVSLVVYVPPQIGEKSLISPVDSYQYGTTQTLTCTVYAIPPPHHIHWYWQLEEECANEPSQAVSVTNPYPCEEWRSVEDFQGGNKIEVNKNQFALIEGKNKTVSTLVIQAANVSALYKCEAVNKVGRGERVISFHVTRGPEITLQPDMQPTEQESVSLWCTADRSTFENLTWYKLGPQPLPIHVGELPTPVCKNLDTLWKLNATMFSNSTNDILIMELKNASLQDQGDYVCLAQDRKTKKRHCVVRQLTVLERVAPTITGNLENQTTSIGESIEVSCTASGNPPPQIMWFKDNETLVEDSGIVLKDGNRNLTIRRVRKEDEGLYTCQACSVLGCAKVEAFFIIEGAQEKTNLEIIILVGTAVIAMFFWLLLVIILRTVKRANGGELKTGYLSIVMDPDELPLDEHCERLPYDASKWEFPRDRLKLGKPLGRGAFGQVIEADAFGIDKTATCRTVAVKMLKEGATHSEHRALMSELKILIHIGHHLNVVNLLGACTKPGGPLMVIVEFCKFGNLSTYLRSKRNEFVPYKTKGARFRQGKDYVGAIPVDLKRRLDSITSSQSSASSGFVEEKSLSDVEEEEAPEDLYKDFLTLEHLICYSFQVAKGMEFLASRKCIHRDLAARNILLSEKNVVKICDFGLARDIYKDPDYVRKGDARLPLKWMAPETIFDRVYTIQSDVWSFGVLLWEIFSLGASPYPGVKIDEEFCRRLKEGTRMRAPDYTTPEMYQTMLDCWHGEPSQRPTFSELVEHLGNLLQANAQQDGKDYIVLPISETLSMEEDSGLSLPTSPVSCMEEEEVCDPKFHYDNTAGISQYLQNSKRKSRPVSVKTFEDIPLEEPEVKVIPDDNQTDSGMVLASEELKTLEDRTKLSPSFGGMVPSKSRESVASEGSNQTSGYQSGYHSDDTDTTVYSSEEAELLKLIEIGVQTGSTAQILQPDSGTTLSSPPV
Chain of Mast/stem cell growth factor receptor Kit (P10721 whole entry): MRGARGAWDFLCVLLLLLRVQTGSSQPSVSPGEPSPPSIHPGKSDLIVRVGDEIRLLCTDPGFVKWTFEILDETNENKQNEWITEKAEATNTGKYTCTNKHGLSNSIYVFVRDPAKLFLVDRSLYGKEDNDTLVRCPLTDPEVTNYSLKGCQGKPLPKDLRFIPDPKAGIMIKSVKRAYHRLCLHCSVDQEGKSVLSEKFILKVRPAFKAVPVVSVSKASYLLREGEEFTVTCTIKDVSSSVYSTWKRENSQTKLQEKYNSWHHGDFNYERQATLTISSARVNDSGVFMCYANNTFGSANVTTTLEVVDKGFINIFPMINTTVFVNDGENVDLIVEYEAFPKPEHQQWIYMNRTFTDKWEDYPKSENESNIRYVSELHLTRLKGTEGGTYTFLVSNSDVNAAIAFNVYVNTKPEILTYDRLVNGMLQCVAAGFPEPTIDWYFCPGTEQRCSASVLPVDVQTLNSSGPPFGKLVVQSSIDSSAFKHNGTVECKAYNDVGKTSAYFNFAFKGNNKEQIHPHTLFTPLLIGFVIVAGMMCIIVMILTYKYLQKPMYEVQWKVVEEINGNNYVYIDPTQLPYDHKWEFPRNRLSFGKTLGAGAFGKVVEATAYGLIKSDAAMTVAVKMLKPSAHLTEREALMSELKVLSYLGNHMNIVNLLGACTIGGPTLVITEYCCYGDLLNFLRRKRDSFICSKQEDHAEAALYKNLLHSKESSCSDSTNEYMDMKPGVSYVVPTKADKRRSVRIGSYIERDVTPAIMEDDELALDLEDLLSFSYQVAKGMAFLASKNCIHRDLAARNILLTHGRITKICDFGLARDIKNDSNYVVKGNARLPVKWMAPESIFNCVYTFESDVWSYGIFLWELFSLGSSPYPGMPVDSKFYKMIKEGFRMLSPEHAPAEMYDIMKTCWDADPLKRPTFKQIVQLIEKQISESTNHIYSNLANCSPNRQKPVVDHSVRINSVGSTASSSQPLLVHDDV
Chain of Tyrosine-protein kinase Lyn (P07948 whole entry): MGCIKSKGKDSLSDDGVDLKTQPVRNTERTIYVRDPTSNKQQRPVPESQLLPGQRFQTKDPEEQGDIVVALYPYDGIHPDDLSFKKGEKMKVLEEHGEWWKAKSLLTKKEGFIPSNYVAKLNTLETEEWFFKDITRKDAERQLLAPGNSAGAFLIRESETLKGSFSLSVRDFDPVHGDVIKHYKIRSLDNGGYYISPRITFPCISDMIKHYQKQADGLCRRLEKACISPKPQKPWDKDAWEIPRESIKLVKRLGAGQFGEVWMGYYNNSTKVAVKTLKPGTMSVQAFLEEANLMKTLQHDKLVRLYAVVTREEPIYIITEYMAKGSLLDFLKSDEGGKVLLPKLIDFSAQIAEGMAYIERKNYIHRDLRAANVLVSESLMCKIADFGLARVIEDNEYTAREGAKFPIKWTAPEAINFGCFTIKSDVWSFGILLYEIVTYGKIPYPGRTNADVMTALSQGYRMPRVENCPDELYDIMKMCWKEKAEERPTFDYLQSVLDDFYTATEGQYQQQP
Chain of Proto-oncogene tyrosine-protein kinase Src (P12931 2-536 limits assumed): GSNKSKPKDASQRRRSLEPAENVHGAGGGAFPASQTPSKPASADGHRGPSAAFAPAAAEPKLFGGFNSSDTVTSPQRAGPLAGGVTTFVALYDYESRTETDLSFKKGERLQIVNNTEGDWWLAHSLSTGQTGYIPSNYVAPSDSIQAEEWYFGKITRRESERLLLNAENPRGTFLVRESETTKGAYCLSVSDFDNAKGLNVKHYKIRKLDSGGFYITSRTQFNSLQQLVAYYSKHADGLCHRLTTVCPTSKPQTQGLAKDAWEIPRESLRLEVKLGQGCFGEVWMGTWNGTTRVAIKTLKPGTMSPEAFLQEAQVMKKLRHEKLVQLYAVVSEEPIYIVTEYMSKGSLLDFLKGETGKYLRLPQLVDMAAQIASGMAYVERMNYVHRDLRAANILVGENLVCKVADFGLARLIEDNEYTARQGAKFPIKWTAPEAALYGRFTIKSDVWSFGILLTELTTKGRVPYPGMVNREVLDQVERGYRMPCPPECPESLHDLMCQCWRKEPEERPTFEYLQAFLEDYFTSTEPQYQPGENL
Chain of Tyrosine-protein kinase HCK (P08631 whole entry): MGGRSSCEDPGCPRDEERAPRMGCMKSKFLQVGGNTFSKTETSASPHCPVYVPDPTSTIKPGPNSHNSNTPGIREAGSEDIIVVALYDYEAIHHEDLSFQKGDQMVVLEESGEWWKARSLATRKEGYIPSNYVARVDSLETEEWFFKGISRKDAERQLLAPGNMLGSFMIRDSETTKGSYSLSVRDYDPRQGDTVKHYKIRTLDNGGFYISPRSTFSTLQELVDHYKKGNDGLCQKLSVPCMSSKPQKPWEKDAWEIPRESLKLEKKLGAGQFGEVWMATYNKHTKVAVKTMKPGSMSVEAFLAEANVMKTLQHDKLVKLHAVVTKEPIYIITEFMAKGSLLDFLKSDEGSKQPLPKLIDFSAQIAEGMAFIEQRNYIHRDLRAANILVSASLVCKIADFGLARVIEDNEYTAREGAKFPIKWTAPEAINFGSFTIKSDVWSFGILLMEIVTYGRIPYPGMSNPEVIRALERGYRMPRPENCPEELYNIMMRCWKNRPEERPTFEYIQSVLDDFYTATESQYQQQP
Chain of Platelet-derived growth factor receptor beta (P09619 whole entry): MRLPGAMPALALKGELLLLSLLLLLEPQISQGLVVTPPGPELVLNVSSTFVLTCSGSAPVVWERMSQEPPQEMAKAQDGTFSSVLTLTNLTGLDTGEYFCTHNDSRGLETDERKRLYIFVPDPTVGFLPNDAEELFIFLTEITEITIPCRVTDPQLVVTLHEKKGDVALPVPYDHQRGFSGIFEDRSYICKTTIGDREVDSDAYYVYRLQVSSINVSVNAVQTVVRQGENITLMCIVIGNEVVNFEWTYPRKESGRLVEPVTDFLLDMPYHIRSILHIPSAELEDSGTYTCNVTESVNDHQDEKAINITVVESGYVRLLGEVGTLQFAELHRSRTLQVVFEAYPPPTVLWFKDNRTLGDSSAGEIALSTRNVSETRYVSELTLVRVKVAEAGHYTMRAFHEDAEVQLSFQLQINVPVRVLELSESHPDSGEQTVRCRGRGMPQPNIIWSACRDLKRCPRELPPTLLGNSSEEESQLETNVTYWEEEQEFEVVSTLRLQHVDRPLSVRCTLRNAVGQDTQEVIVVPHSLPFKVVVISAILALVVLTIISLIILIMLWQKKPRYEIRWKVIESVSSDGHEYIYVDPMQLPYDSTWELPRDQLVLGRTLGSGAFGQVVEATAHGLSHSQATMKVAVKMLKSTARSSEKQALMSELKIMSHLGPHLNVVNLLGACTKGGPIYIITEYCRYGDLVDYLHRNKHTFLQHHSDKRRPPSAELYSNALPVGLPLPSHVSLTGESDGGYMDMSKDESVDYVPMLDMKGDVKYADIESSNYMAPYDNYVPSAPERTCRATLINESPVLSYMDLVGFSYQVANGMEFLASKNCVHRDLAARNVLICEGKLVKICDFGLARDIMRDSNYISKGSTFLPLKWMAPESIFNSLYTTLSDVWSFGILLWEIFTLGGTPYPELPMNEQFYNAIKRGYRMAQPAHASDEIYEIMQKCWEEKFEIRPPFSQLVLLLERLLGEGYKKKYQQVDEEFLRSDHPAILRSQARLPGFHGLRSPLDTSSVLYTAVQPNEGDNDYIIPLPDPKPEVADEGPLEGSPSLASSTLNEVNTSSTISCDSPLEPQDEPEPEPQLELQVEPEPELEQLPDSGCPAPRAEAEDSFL

SMILES: Cc1ccc(F)c(NC(=O)Nc2ccc(-c3cccc4snc(N)c34)cc2)c1
IC50 [1]: 790 nM
IC50 [2]: 1500 nM
IC50 [3]: 628 nM

SMILES: Nc1noc2cccc(-c3ccc(NC(=O)c4ccccc4)cc3)c12
IC50 [1]: > 12500 nM
IC50 [2]: > 12500 nM
IC50 [3]: > 12500 nM

SMILES: Nc1noc2cccc(-c3ccc(NC(=O)Nc4ccccc4C(F)(F)F)cc3)c12
IC50 [1]: 23400 nM

SMILES: Cc1ccc(F)c(NC(=O)Nc2ccc(-c3ccc(OC(F)(F)F)c4onc(N)c34)cc2)c1
IC50 [1]: 294 nM
IC50 [2]: 58 nM

SMILES: Nc1ccc(-c2cccc3onc(N)c23)cc1
IC50 [1]: 14800 nM

SMILES: Nc1noc2cccc(-c3ccc(NC(=O)Nc4ccccc4OC(F)(F)F)cc3)c12
IC50 [1]: 166 nM
IC50 [2]: 60 nM

SMILES: COc1ccc(-c2ccc(NC(=O)Nc3cc(C)ccc3F)cc2)c2c(N)noc12
bioavailability [5]: 34%
IC50 [1]: 43 nM
IC50 [12]: > 50 µM
ED50 [6]: 3.2 mg/kg
IC50 [13]: > 50 µM
IC50 [14]: > 50 µM
IC50 [15]: 249 nM
IC50 [2]: 36 nM
half-life [7]: 39.6 min
IC50 [16]: 96 nM
inhibition in vivo at 30 mg/kg/day [8]: 55%
clearance [9]: 16.7 mL/min/kg
Vd [10]: 0.94 L/kg
AUC [11]: 8.5 µM·h
IC50 [17]: 24 nM
IC50 [18]: 27 nM
IC50 [19]: > 30 µM

SMILES: NC(=O)Nc1ccc(-c2cccc3onc(N)c23)cc1
IC50 [1]: 4440 nM

SMILES: Cc1ccc(F)c(NC(=O)Nc2ccc(-c3ccc(CN4CCOCC4)c4onc(N)c34)cc2)c1
IC50 [1]: 114 nM
IC50 [2]: 82 nM
IC50 [3]: 365 nM

SMILES: Nc1noc2cccc(-c3ccc(NC(=O)Nc4cccc(C(F)(F)F)c4)cc3)c12
IC50 [1]: 114 nM
IC50 [2]: 64 nM

SMILES: COc1ccc(NC(=O)Nc2ccc(-c3cccc4onc(N)c34)cc2)cc1Cl
IC50 [2]: 8 nM
IC50 [3]: 8 nM
IC50 [24]: 36 nM

SMILES: Nc1noc2cccc(-c3ccc(NC(=O)Nc4cc(C(F)(F)F)ccc4F)cc3)c12
IC50 [1]: 339 nM

SMILES: COc1ccc(-c2ccc(NC(=O)Nc3cccc(Br)c3)cc2)c2c(N)noc12
bioavailability [5]: 71%
ED50 [6]: 1 mg/kg
half-life [7]: 114 min
clearance [9]: 18.3 mL/min/kg
Vd [10]: 3.1 L/kg
AUC [11]: 13.8 µM·h

SMILES: Nc1noc2cccc(-c3ccc(NC(=O)/C=C/c4cccc(C(F)(F)F)c4)cc3)c12
IC50 [1]: > 12500 nM
IC50 [2]: 1400 nM
IC50 [3]: > 12500 nM

SMILES: Nc1nsc2cccc(-c3ccc(NC(=O)Nc4cccc(C(F)(F)F)c4)cc3)c12
IC50 [1]: 2630 nM
IC50 [2]: 1260 nM
IC50 [3]: 247 nM

SMILES: Cc1ccc(F)c(NC(=O)Nc2ccc(-c3ccc(F)c4onc(N)c34)cc2)c1
IC50 [1]: 216 nM
IC50 [2]: 173 nM
IC50 [3]: 211 nM

Continued, in another order:

IC50 [1]: 23 nM
SMILES: Cc1ccc(F)c(NC(=O)Nc2ccc(-c3cccc4onc(N)c34)cc2)c1

IC50 [1]: 36 nM
IC50 [2]: 22 nM
SMILES: Nc1noc2cccc(-c3ccc(NC(=O)Nc4ccc(F)c(Cl)c4)cc3)c12

IC50 [1]: 50 nM
SMILES: Cc1ccc(NC(=O)Nc2ccc(-c3cccc4onc(N)c34)cc2)cc1Cl

IC50 [1]: 11 nM
Activity [4]: inactive
SMILES: Nc1noc2cccc(-c3ccc(NC(=O)Nc4cccc(F)c4)cc3)c12

bioavailability [5]: 100%
IC50 [1]: 62 nM
IC50 [2]: 28 nM
half-life [7]: 72 min
clearance [9]: 13.2 mL/min/kg
Vd [10]: 1.4 L/kg
AUC [11]: 33.1 µM·h
SMILES: Nc1noc2cccc(-c3ccc(NC(=O)Nc4ccc(F)c(C(F)(F)F)c4)cc3)c12
ED50 [6]: 5.4 mg/kg
inhibition in vivo at 30 mg/kg/day [8]: 63%

bioavailability [5]: 99%
IC50 [1]: 72 nM
IC50 [12]: > 50 µM
IC50 [13]: > 50 µM
IC50 [14]: > 50 µM
IC50 [15]: 1000 nM
IC50 [2]: 30 nM
Activity [16]: inactive
Vd [21]: 1.2 L/kg
clearance [22]: 15.5 mL/min/kg
AUC [11]: 25.8 µM·h
IC50 [17]: 38 nM
IC50 [18]: 40 nM
half-life [23]: 54 min
SMILES: COc1ccc(-c2ccc(NC(=O)Nc3cccc(Cl)c3)cc2)c2c(N)noc12
inhibition in vivo at 3 mg/kg [20]: 90%
inhibition in vivo at 30 mg/kg/day [8]: 45%

IC50 [1]: 5 nM
Activity [4]: inactive
SMILES: COc1ccc(NC(=O)Nc2ccc(-c3cccc4onc(N)c34)cc2)cc1

IC50 [1]: 27 nM
Activity [4]: inactive
SMILES: Nc1noc2cccc(-c3ccc(NC(=O)Nc4ccc(C(F)(F)F)cc4)cc3)c12

IC50 [1]: 21 nM
SMILES: Nc1noc2cccc(-c3ccc(NC(=O)Nc4ccccc4F)cc3)c12

IC50 [1]: 5 nM
SMILES: Cc1ccc(NC(=O)Nc2ccc(-c3cccc4onc(N)c34)cc2)cc1

IC50 [1]: 14 nM
IC50 [2]: 5 nM
SMILES: Nc1noc2cccc(-c3ccc(NC(=O)Nc4cccc([N+](=O)[O-])c4)cc3)c12

IC50 [1]: 7 nM
IC50 [2]: 4 nM
SMILES: Nc1noc2cccc(-c3ccc(NC(=O)Nc4ccc(F)cc4)cc3)c12

IC50 [1]: 10 nM
IC50 [2]: 6 nM
SMILES: Nc1noc2cccc(-c3ccc(NC(=O)Nc4cccc(Cl)c4)cc3)c12

IC50 [1]: 14 nM
Activity [4]: inactive
SMILES: Nc1noc2cccc(-c3ccc(NC(=O)Nc4cc(F)cc(F)c4)cc3)c12

IC50 [1]: 12 nM
Activity [4]: inactive
SMILES: Cc1ccc(NC(=O)Nc2ccc(-c3cccc4onc(N)c34)cc2)cc1F

IC50 [1]: 64 nM
IC50 [2]: 61 nM
SMILES: Cc1ccc(F)c(NC(=O)Nc2ccc(-c3ccc(C)c4onc(N)c34)cc2)c1

IC50 [1]: 4 nM
Activity [4]: inactive
SMILES: COc1cccc(NC(=O)Nc2ccc(-c3cccc4onc(N)c34)cc2)c1

IC50 [1]: 71 nM
IC50 [2]: 34 nM
SMILES: Cc1ccc(F)c(NC(=O)Nc2ccc(-c3ccc(OCCN4CCOCC4)c4onc(N)c34)cc2)c1

IC50 [1]: 12 nM
IC50 [2]: 14 nM
SMILES: Cc1cccc(NC(=O)Nc2ccc(-c3cccc4onc(N)c34)cc2)c1

IC50 [1]: 7 nM
Activity [4]: inactive
SMILES: Nc1noc2cccc(-c3ccc(NC(=O)Nc4cccc(Br)c4)cc3)c12

IC50 [1]: 102 nM
IC50 [2]: 27 nM
SMILES: Nc1noc2cccc(-c3ccc(NC(=O)Nc4ccc(OC(F)(F)F)cc4)cc3)c12

IC50 [1]: 18 nM
SMILES: Nc1noc2cccc(-c3ccc(NC(=O)Nc4ccccc4)cc3)c12
